Measurements from patent US20160016998A1, “HIGH-AFFINITY MATRIPTASE INHIBITORS” (MERCK PATENT GMBH, priority 2013, published 2016).
Read-outs that look alike come from different tables or passages of the source. Bridge positions count the residues as written; N and C are the ends. Peptide text beside a SMILES is read from it.

Experiments:
Bovine trypsin = target: T1, Bovine trypsin (Bos taurus, UniProt P00760); test: Trypsin enzyme inhibition assay with chromogenic substrate Boc-QAR-pNA; format: biochemical; conditions: pH 7.6
T1 construct: purchased Sigma-Aldrich
T1 sequence (P00760 24-246): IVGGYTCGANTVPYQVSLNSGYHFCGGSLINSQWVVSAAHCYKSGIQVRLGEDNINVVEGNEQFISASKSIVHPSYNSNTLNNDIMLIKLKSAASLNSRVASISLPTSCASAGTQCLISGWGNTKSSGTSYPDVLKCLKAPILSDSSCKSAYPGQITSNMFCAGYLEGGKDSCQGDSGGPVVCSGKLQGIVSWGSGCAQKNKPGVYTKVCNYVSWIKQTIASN
Procedure: (§1) Recombinant production, autocatalytic activation and purification of matriptase were conducted as previously described. Bovine trypsin was purchased from Sigma-Aldrich. Active-site titration and determination of Michaelis-Menten constants KM for the chromogenic substrate Boc-QAR-pNA was performed as reported earlier.
All experiments were performed in triplicate. Active-site titrated matriptase (final concentration: [E]=0.9 nM) or trypsin (final concentration: [E]=0.5 nM) were incubated with the respective inhibitor in different concentrations [I] at pH 7.6 or 8.5 for 30 min. Then, the chromogenic substrate Boc-QAR-pNA (final concentration: [S]=250 μM) was added. The residual proteolytic activity (v/v0) was determined by monitoring the absorption of the corresponding samples in 96-well plates (NUNC, round bottom, clear) at 405 nm in 60 sec intervals over 30 min at RT using the Tecan GENios microplate reader. Slopes of the initial reaction velocities (steady-state) were calculated and normalized to the data of the uninhibited enzymatic hydrolysis of Boc-QAR-pNA. The determined v/v0 values were plotted against the concentration of the inhibitor. The resulting dose-response curves were fitted either by equation 1 or in case of tight-binding inhibition (trypsin: 42; matriptase: 43 at pH 8.5, 44 at pH 7.6 and 8.5) by equation 2 through non-linear regression.
(§2) Errors were calculated through propagation of errors (compare Tischler et al.).[17]

matriptase = target: T2, matriptase (Homo sapiens, UniProt Q9Y5Y6); test: Matriptase enzyme inhibition assay with chromogenic substrate Boc-QAR-pNA; format: biochemical; conditions: for matriptase affinity / inhibitor potency in words: enzyme inhibition assays, comparator as worded; for Relative Activity: ratio Ki of compound / Ki of SFTI-1[1,14]; for Sum of Increment Contributions: sum of ΔBG differences of the single modifications
T2 construct: made in house
T2 sequence (Q9Y5Y6 615-855 limits assumed): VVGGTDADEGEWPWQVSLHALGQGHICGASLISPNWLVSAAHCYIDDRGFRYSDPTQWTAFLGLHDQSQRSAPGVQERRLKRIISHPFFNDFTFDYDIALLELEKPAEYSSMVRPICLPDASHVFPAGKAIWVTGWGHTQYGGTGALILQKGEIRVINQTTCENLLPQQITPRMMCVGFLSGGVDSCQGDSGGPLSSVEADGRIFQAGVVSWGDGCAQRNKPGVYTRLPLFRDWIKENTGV
Procedure: as §1
All experiments were performed in triplicate. […] Slopes of the initial reaction velocities (steady-state) were calculated and normalized to the data of the uninhibited enzymatic hydrolysis of Boc-QAR-pNA. The determined v/v0 values were plotted against the concentration of the inhibitor.
as §2

[1] = disulfide bond, air (O2), (NH4)2CO3 buffer pH 8.4, water, 168.0 h

## CC[C@H](C)[C@@H]1NC(=O)[C@H](CO)NC(=O)[C@H](CCCCN)NC(=O)[C@H]([C@@H](C)O)NC(=O)[C@@H](NC(=O)[C@H](CCCNC(=N)N)NC(=O)CN)CSSC[C@@H](C(=O)N[C@@H](Cc2c[nH]cn2)C(=O)N2CCC[C@H]2C(=O)N[C@@H](CC(=O)O)C(=O)O)NC(=O)[C@H](CCCNC(=N)N)NC(=O)[C@@H]2CCCN2C(=O)[C@@H]2CCCN2C1=O [Compound 43] (H-GRCTKSIPPRCHPD-OH; disulfide 3-11; N-terminus assumed)
Bovine trypsin
  Ki: 11.2 ± 2 nM
matriptase; contributions of compounds 18 and 22
  sum of individual favorable contributions to ΔBG: 2.29 ± 0.14 kcal/mol
matriptase; pH 7.6
  matriptase affinity / inhibitor potency in words: further increased matriptase affinity compared to SFTI-1[1,14] derivatives 9, 18, and 22
matriptase; matriptase, pH 7.6
  difference of the free energies of binding/dissociation ΔBG between compound and SFTI-1[1,14]: 2.46 ± 0.096 kcal/mol
  Sum of Increment Contributions: 2.29 ± 0.14 kcal/mol
matriptase; matriptase, pH 7.6 (Table 2)
  ΔBG(x)-ΔBG(SFTI-1[1,14]): 2.46 ± 0.096 kcal/mol
  Relative Activity: 0.016
matriptase; pH 7.6 (Table 2)
  Ki: 11 nM
matriptase; pH 8.5 (values in brackets)
  Ki: 1.1 nM

## CC[C@H](C)[C@@H]1NC(=O)[C@H](CO)NC(=O)[C@H](CCCCN)NC(=O)[C@H]([C@@H](C)O)NC(=O)[C@@H](NC(=O)[C@H](CCCNC(=N)N)NC(=O)CN)CSSC[C@@H](C(=O)N[C@@H](Cc2ccccc2)C(=O)N2CCC[C@H]2C(=O)N[C@@H](CC(=O)O)C(=O)O)NC(=O)[C@H](Cn2cc(CN)nn2)NC(=O)[C@@H]2CCCN2C(=O)[C@@H]2CCCN2C1=O
[1]; from CC[C@H](C)[C@H](NC(=O)[C@H](CO)NC(=O)[C@H](CCCCN)NC(=O)[C@@H](NC(=O)[C@H](CS)NC(=O)[C@H](CCCNC(=N)N)NC(=O)CN)[C@@H](C)O)C(=O)N1CCC[C@H]1C(=O)N1CCC[C@H]1C(=O)N[C@@H](Cn1cc(CN)nn1)C(=O)N[C@@H](CS)C(=O)N[C@@H](Cc1ccccc1)C(=O)N1CCC[C@H]1C(=O)N[C@@H](CC(=O)O)C(=O)O, 0.63 mM, 22 steps
  ring closure, yield of all isomers: 21.2%

## CC[C@H](C)[C@@H]1NC(=O)[C@H](CO)NC(=O)[C@H](CCCCN)NC(=O)[C@H]([C@@H](C)O)NC(=O)[C@@H](NC(=O)[C@H](CCCNC(=N)N)NC(=O)CN)CSSC[C@@H](C(=O)N[C@@H](Cc2c[nH]cn2)C(=O)N2CCC[C@H]2C(=O)N[C@@H](CC(=O)O)C(=O)O)NC(=O)[C@H](Cn2cc(CN)nn2)NC(=O)[C@@H]2CCCN2C(=O)[C@@H]2CCCN2C1=O [Compound 42]
[1]; from CC[C@H](C)[C@H](NC(=O)[C@H](CO)NC(=O)[C@H](CCCCN)NC(=O)[C@@H](NC(=O)[C@H](CS)NC(=O)[C@H](CCCNC(=N)N)NC(=O)CN)[C@@H](C)O)C(=O)N1CCC[C@H]1C(=O)N1CCC[C@H]1C(=O)N[C@@H](Cn1cc(CN)nn1)C(=O)N[C@@H](CS)C(=O)N[C@@H](Cc1c[nH]cn1)C(=O)N1CCC[C@H]1C(=O)N[C@@H](CC(=O)O)C(=O)O, 0.63 mM, 30 steps
  ring closure, yield of all isomers: 1.2%
Bovine trypsin
  Ki: 9.2 ± 2.1 nM
matriptase; pH 7.6
  matriptase affinity / inhibitor potency in words: further increased matriptase affinity compared to SFTI-1[1,14] derivatives 9, 18, and 22
matriptase; matriptase, pH 7.6 (Table 2)
  ΔBG(x)-ΔBG(SFTI-1[1,14]): 1.22 ± 0.096 kcal/mol
  Relative Activity: 0.13
matriptase; pH 7.6 (Table 2)
  Ki: 89.5 ± 11.1 nM
matriptase; matriptase, pH 7.6
  Sum of Increment Contributions: 1.65 ± 0.14 kcal/mol

## CC[C@H](C)[C@@H]1NC(=O)[C@H](CO)NC(=O)[C@H](CCCCN)NC(=O)[C@H]([C@@H](C)O)NC(=O)[C@@H](NC(=O)[C@H](CCCNC(=N)N)NC(=O)CN)CSSC[C@@H](C(=O)N[C@@H](Cc2c[nH]cn2)C(N)=O)NC(=O)[C@H](CCCNC(=N)N)NC(=O)[C@@H]2CCCN2C(=O)[C@@H]2CCCN2C1=O [Compound 44] (H-GRCTKSIPPRCH-NH2; disulfide 3-11; N-terminus assumed)
Bovine trypsin
  Ki: 38 ± 11.1 nM
matriptase; matriptase, pH 7.6 (Table 2)
  ΔBG(x)-ΔBG(SFTI-1[1,14]): 2.8 ± 0.14 kcal/mol
  Relative Activity: 0.009
matriptase; pH 7.6
  selectivity towards matriptase over trypsin: 6 fold
matriptase; pH 7.6 (Table 2)
  Ki: 6.2 ± 1.2 nM
matriptase; pH 8.5 (values in brackets)
  Ki: 2.3 ± 0.8 nM

## CC[C@H](C)[C@@H]1NC(=O)[C@H](CO)NC(=O)[C@H](CCCCN)NC(=O)[C@H]([C@@H](C)O)NC(=O)[C@@H](NC(=O)[C@H](CCCNC(=N)N)NC(=O)CN)CSSC[C@@H](C(=O)N[C@@H](Cc2ccccc2)C(=O)N2CCC[C@H]2C(=O)N[C@@H](CC(=O)O)C(=O)O)NC(=O)[C@H](CCCCN)NC(=O)[C@@H]2CCCN2C(=O)[C@@H]2CCCN2C1=O
[1]; from CC[C@H](C)[C@H](NC(=O)[C@H](CO)NC(=O)[C@H](CCCCN)NC(=O)[C@@H](NC(=O)[C@H](CS)NC(=O)[C@H](CCCNC(=N)N)NC(=O)CN)[C@@H](C)O)C(=O)N1CCC[C@H]1C(=O)N1CCC[C@H]1C(=O)N[C@@H](CCCCN)C(=O)N[C@@H](CS)C(=O)N[C@@H](Cc1ccccc1)C(=O)N1CCC[C@H]1C(=O)N[C@@H](CC(=O)O)C(=O)O, […], 29 steps
  ring closure, yield of all isomers: 3.9%

## CC[C@H](C)[C@@H]1NC(=O)[C@@H]2CCCN2C(=O)[C@@H]2CCCN2C(=O)[C@H](Cn2cc(CN)nn2)NC(=O)[C@H](CO)NC(=O)[C@H](CCCCN)NC(=O)[C@H]([C@@H](C)O)NC(=O)[C@@H](NC(=O)[C@H](CCCNC(=N)N)NC(=O)CN)CSSC[C@@H](C(=O)N[C@@H](Cc2ccccc2)C(=O)N2CCC[C@H]2C(=O)N[C@@H](CC(=O)O)C(=O)O)NC1=O
[1]; from CC[C@H](C)[C@H](NC(=O)[C@@H]1CCCN1C(=O)[C@@H]1CCCN1C(=O)[C@H](Cn1cc(CN)nn1)NC(=O)[C@H](CO)NC(=O)[C@H](CCCCN)NC(=O)[C@@H](NC(=O)[C@H](CS)NC(=O)[C@H](CCCNC(=N)N)NC(=O)CN)[C@@H](C)O)C(=O)N[C@@H](CS)C(=O)N[C@@H](Cc1ccccc1)C(=O)N1CCC[C@H]1C(=O)N[C@@H](CC(=O)O)C(=O)O, 0.63 mM, 4 steps
  ring closure, yield of all isomers: 17%
